Measurements as given in PubChem BioAssay (NCI).
Where “and” joins values, the source holds several entries; their conditions need not be identical. Equal values may be shown once.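 All cell lines were grown in 96-well plates and treated with compound for 48 hours. GI50 marks 50% less growth. TGI: concentration producing complete growth inhibition.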

Experiments:
Test in all cases: DTP human tumour cell line panel, 48 h
BT-549 breast = system: BT-549 breast
COLO 205 colon = system: COLO 205 colon
HCC-2998 colon = system: HCC-2998 colon
HCT-116 colon = system: HCT-116 colon
HOP-92 NSCLC = system: HOP-92 NSCLC
HT29 colon = system: HT29 colon
LOX IMVI melanoma = system: LOX IMVI melanoma
MALME-3M melanoma = system: MALME-3M melanoma
SK-MEL-2 melanoma = system: SK-MEL-2 melanoma
SK-MEL-5 melanoma = system: SK-MEL-5 melanoma
SNB-19 CNS = system: SNB-19 CNS
SR leukemia = system: SR leukemia
UACC-62 melanoma = system: UACC-62 melanoma
UO-31 renal = system: UO-31 renal

Structure (SMILES)	TGI (BT-549 breast)	TGI (COLO 205 colon)	TGI (HCC-2998 colon)	TGI (HCT-116 colon)	TGI (HOP-92 NSCLC)	TGI (HT29 colon)	TGI (LOX IMVI melanoma)	TGI (MALME-3M melanoma)	TGI (SK-MEL-2 melanoma)	TGI (SK-MEL-5 melanoma)	TGI (SNB-19 CNS) [µM]	TGI (SR leukemia)	TGI (UACC-62 melanoma) [µM]	TGI (UO-31 renal)	GI50 (COLO 205 colon) [µM]	GI50 (HCT-116 colon) [µM]	GI50 (LOX IMVI melanoma) [µM]	GI50 (SK-MEL-5 melanoma) [µM]	GI50 (SR leukemia) [µM]	GI50 (HOP-92 NSCLC) [µM]
CNC(=O)N(CCC#N)CCCN(C(=O)NC)c1ccccc1	> 100 µM	> 100 µM	> 100 µM	> 100 µM	> 100 µM	> 100 µM	> 100 µM	> 100 µM	> 100 µM	> 100 µM	> 100	> 100 µM	> 100	> 100 µM						
CCCCCCOc1ccc(C(=O)NO)cc1	72.8 µM	26 µM	28.3 µM	21.5 µM	40 µM	22.7 µM	20.7 µM	34.4 µM	39 µM	> 58.2 µM	54.8	23.6 µM	20.6	20.1 µM						
Cc1ccc(N=Nc2ccc(O)c(CN(C)C)c2)cc1	79.9 µM	35.2 µM	29.5 µM	51.8 µM	67.7 µM	32.3 µM	28.6 µM	31.2 µM	37.7 µM	28 µM	> 100	> 100 µM	44.3	54.1 µM						
COc1cc(C2C(C#N)=C(N)OC3=C2CCS(=O)(=O)c2ccc(C)cc23)cc(OC)c1OC (stereo not given)	> 100 µM	> 100 µM	> 100 µM	> 100 µM	> 100 µM	> 100 µM	> 100 µM	> 100 µM	> 100 µM	> 100 µM	> 100	> 100 µM	> 100	> 100 µM						
C=CCSC1=N/C(=C\c2cccs2)C(=O)N1CC=C	> 100 µM	> 100 µM	> 100 µM	> 100 µM	57 µM	> 100 µM	> 100 µM	> 100 µM	> 100 µM	> 100 µM	> 100	> 100 µM	> 100	> 100 µM						
CC(=O)Nc1cc2c3c(c1)CCCN3CCC2	> 100 µM	> 100 µM	> 100 µM	> 100 µM	> 100 µM	> 100 µM	> 100 µM	> 100 µM	> 100 µM	> 100 µM	> 100	> 100 µM	> 100	> 100 µM						
Nc1cc(N2CCCC2)nc(=O)n1-c1ccccc1	> 100 µM	> 100 µM	75.6 µM	> 100 µM	> 100 µM	> 100 µM	> 100 µM	> 100 µM	> 100 µM	> 100 µM	> 100	> 100 µM								
CN(NC(=O)c1cccs1)C1=NCCCCN1	> 100 µM	> 100 µM	> 100 µM	> 100 µM	> 100 µM	> 100 µM	> 100 µM	> 100 µM	> 100 µM	> 100 µM	> 100	> 100 µM	> 100	> 100 µM						
COc1ccc2[nH]cc([C@@H]3C4CCC(C4)[C@H]3NCc3cccc(CN[C@H]4C5CCC(C5)[C@@H]4c4c[nH]c5ccc(OC)cc45)c3)c2c1	3.16 µM and 3.18 µM	1.2 µM and 0.427 µM	0.53 µM and 0.842 µM	1.08 µM and 2.02 µM	2.6 µM and 2.59 µM	1.81 µM and 0.63 µM	0.328 µM and 0.605 µM	3.32 µM and 3.31 µM	2.91 µM and 2.99 µM	2.52 µM and 2.99 µM	2.94	0.78 µM and 1 µM	3.19	2.85 µM and 2.64 µM	0.206	0.351	0.184	1.25	0.28	
O=C(Nc1ccccc1)N(C1=NCC(CI)S1)c1ccc(F)cc1F (stereo not given)	89.4 µM	> 100 µM	> 100 µM	> 100 µM	51.1 µM	> 100 µM	35.2 µM	> 100 µM	> 100 µM	> 100 µM	> 100	65.7 µM	> 100	> 100 µM						
CO/N=C(\C(=O)N(C)n1cnnc1)c1csc(NC(c2ccccc2)(c2ccccc2)c2ccccc2)n1	> 10 µM	> 10 µM	> 10 µM	> 10 µM	> 10 µM	> 10 µM	> 10 µM	> 10 µM	> 10 µM	> 10 µM	> 10	> 10 µM		> 10 µM						
Cc1ccc(-c2cc(C(F)(F)F)nn2-c2ccc(S(N)(=O)=O)cc2)cc1	32.1 µM	50.8 µM	33.1 µM	> 58.2 µM	29.8 µM	> 55.5 µM	31.7 µM	46.6 µM	43.5 µM	32.6 µM	> 56.7	45.3 µM	> 53.6	> 53.2 µM						12
O=c1ccn(C2OC(CO)C(O)C2[Se]c2ccccc2)c(=O)[nH]1 (stereo not given)	> 100 µM	> 100 µM	> 100 µM	> 100 µM	> 100 µM	> 100 µM	> 100 µM	> 100 µM	> 100 µM	> 100 µM	> 100	> 100 µM	7.31	> 100 µM						
CCOc1ccc(N/C(Cl)=C(Cl)\C(=C(\Nc2ccc(OCC)cc2)n2nnc3ccccc32)[N+](=O)[O-])cc1	14 µM	25.4 µM	46.6 µM	5.29 µM	5.56 µM	3.46 µM	3.96 µM	5.49 µM	35.5 µM	24.5 µM	34.4	5.26 µM	34.6	23.9 µM						
CC(=O)Nc1ccc2[nH]c(-c3cccc(Cl)c3)cc(=O)c2c1	> 100 µM	39.9 µM	63.5 µM		> 100 µM	33.7 µM		> 100 µM		> 100 µM	> 100	> 100 µM	84.4							
CC(=O)CSc1c(-c2ccccc2)c(=O)n(-c2ccccc2)c(=S)n1-c1ccccc1	> 100 µM	> 100 µM		> 100 µM	> 100 µM	> 100 µM	> 100 µM	> 100 µM	> 100 µM	> 100 µM	> 100	> 100 µM	> 100	> 100 µM						
Cc1nc(N/N=C/c2ccccc2Cl)[nH]c(=O)c1CCO	> 100 µM	> 100 µM	> 100 µM	> 100 µM	57.3 µM	> 100 µM	> 100 µM	91.4 µM		> 100 µM	> 100	> 100 µM	> 100	> 100 µM						
COc1ccc(C(CC(=O)C(C)(C)CN2CCCCC2)SCCS(=O)(=O)O)cc1 (stereo not given)	> 100 µM	> 100 µM	> 100 µM	> 100 µM	47.2 µM	83.2 µM		84.8 µM	> 100 µM	62.5 µM	> 100	49.7 µM	> 100	> 100 µM						
COC(=O)c1c(O)ccc2c1c1c(n2Cc2ccc(Cl)cc2Cl)C(=O)c2ccccc2C1=O	26.1 µM	24.3 µM	9.33 µM	13.1 µM	25.1 µM	32.1 µM	33.3 µM	34.2 µM	28.8 µM	27.1 µM	30.6	12.3 µM		22.8 µM						
COc1ccc(/C(O)=C/c2nc3cccnc3nc2/C=C(\O)c2ccc(OC)cc2)cc1	53.5 µM	> 100 µM	> 100 µM	52.3 µM	> 100 µM	79.3 µM	44.5 µM	52.2 µM	91.7 µM	78.3 µM	57.5	51.2 µM	44.7	71.2 µM						
CCN(CC)CCNC(=O)c1cc2cc(NC(=O)c3cc4cc(NC(=O)c5cc6cc(N)ccc6[nH]5)ccc4[nH]3)ccc2[nH]1	> 100 µM	> 100 µM	> 100 µM		> 100 µM	> 100 µM	> 100 µM	> 100 µM	> 100 µM	> 100 µM	> 100	> 100 µM	> 100	> 100 µM						
CN(C)P(=O)(Oc1ccc(CC(NC(=O)OCc2ccccc2)C(=O)OCc2ccccc2)cc1)N(C)C (stereo not given)	32.4 µM	42.8 µM	37.8 µM	31.3 µM	34.9 µM	24.6 µM	34.5 µM	32.7 µM	31.5 µM	38.1 µM	38.6	24.6 µM	31.5	33.3 µM						
CC1=C/C(=N\O)C(C(O)(C(F)(F)F)C(F)(F)F)C(C)(C)C1 (stereo not given)	> 10 µM	> 10 µM	> 10 µM	> 10 µM	> 10 µM	> 10 µM	> 10 µM	> 10 µM		> 10 µM	> 10	> 10 µM	> 10	> 10 µM						
COc1cc(OC)c2nc(C)c3c(c2c1)NCC3	27.5 µM	17.1 µM	20.3 µM	12.9 µM	30.9 µM	15.5 µM	15 µM	24 µM	21.4 µM	21.6 µM	40.7	7.08 µM	22.4	27.5 µM						
Cc1cc(S(=O)(=O)Nc2cc(N)[nH]n2)c(SCc2nc(N)nc(N(C)C)n2)cc1Cl	> 10 µM	> 10 µM	> 10 µM	> 10 µM	> 10 µM	> 10 µM	> 10 µM	> 10 µM	> 10 µM	> 10 µM	> 10	> 10 µM		> 10 µM						
CC(=O)O[C@H]1/C(=C/c2ccncc2)C[C@H]2[C@@H]3CC=C4C[C@@H](N5CCCC5)CC[C@]4(C)[C@H]3CC[C@]12C	35.8 µM	25.5 µM	26 µM	15.3 µM	19.8 µM	14.1 µM	6.82 µM	28 µM	32.1 µM	21.1 µM	31.9	21.6 µM	27.5	18.1 µM						
O=c1[nH]nc(Cc2ccccc2)n1/N=C\c1ccccc1	> 100 µM	> 100 µM	> 100 µM	> 100 µM	> 100 µM	> 100 µM	> 100 µM	> 100 µM	> 100 µM	> 100 µM		> 100 µM	> 100	> 100 µM						
C[C@]12CC/C(=N\O)C=C1CC[C@@H]1[C@@H]2CC[C@]2(C)C(=N/O)/C(=C/c3ccc([N+](=O)[O-])cc3)C[C@@H]12	14.3 µM	53.3 µM		14.2 µM	22.1 µM	21.9 µM	19.3 µM	71 µM	17.1 µM	16.2 µM	> 100	9.26 µM	14.6	20.4 µM						
NCCN1C(=O)CN=C(c2ccc(Cl)cc2)c2cc(Cl)ccc21	30.3 µM	38.7 µM	31.8 µM	30.1 µM	39.7 µM	36 µM	32.4 µM	29.7 µM	31.8 µM	31.4 µM	45.6	40.7 µM	32.2	27.3 µM						
CC(=O)Nc1ccc(-c2nc3ccccc3s2)cc1I	81 µM	> 100 µM	> 100 µM	81 µM	> 88.9 µM	> 100 µM	> 81.7 µM	> 94.2 µM	> 100 µM	> 100 µM	> 87.5	> 100 µM	> 76.9	67.9 µM						
